Test results reported in ChEMBL document CHEMBL1156725, “8-Biarylchromen-4-one inhibitors of the DNA-dependent protein kinase (DNA-PK)” (Bioorg Med Chem Lett, 2008).

What follows are molecules tested against DNA-dependent protein kinase catalytic subunit (Homo sapiens, UniProt P78527) (assay: Inhibition of DNA-dependent protein kinase).
DNA-dependent protein kinase catalytic subunit, sequence (P78527 whole entry): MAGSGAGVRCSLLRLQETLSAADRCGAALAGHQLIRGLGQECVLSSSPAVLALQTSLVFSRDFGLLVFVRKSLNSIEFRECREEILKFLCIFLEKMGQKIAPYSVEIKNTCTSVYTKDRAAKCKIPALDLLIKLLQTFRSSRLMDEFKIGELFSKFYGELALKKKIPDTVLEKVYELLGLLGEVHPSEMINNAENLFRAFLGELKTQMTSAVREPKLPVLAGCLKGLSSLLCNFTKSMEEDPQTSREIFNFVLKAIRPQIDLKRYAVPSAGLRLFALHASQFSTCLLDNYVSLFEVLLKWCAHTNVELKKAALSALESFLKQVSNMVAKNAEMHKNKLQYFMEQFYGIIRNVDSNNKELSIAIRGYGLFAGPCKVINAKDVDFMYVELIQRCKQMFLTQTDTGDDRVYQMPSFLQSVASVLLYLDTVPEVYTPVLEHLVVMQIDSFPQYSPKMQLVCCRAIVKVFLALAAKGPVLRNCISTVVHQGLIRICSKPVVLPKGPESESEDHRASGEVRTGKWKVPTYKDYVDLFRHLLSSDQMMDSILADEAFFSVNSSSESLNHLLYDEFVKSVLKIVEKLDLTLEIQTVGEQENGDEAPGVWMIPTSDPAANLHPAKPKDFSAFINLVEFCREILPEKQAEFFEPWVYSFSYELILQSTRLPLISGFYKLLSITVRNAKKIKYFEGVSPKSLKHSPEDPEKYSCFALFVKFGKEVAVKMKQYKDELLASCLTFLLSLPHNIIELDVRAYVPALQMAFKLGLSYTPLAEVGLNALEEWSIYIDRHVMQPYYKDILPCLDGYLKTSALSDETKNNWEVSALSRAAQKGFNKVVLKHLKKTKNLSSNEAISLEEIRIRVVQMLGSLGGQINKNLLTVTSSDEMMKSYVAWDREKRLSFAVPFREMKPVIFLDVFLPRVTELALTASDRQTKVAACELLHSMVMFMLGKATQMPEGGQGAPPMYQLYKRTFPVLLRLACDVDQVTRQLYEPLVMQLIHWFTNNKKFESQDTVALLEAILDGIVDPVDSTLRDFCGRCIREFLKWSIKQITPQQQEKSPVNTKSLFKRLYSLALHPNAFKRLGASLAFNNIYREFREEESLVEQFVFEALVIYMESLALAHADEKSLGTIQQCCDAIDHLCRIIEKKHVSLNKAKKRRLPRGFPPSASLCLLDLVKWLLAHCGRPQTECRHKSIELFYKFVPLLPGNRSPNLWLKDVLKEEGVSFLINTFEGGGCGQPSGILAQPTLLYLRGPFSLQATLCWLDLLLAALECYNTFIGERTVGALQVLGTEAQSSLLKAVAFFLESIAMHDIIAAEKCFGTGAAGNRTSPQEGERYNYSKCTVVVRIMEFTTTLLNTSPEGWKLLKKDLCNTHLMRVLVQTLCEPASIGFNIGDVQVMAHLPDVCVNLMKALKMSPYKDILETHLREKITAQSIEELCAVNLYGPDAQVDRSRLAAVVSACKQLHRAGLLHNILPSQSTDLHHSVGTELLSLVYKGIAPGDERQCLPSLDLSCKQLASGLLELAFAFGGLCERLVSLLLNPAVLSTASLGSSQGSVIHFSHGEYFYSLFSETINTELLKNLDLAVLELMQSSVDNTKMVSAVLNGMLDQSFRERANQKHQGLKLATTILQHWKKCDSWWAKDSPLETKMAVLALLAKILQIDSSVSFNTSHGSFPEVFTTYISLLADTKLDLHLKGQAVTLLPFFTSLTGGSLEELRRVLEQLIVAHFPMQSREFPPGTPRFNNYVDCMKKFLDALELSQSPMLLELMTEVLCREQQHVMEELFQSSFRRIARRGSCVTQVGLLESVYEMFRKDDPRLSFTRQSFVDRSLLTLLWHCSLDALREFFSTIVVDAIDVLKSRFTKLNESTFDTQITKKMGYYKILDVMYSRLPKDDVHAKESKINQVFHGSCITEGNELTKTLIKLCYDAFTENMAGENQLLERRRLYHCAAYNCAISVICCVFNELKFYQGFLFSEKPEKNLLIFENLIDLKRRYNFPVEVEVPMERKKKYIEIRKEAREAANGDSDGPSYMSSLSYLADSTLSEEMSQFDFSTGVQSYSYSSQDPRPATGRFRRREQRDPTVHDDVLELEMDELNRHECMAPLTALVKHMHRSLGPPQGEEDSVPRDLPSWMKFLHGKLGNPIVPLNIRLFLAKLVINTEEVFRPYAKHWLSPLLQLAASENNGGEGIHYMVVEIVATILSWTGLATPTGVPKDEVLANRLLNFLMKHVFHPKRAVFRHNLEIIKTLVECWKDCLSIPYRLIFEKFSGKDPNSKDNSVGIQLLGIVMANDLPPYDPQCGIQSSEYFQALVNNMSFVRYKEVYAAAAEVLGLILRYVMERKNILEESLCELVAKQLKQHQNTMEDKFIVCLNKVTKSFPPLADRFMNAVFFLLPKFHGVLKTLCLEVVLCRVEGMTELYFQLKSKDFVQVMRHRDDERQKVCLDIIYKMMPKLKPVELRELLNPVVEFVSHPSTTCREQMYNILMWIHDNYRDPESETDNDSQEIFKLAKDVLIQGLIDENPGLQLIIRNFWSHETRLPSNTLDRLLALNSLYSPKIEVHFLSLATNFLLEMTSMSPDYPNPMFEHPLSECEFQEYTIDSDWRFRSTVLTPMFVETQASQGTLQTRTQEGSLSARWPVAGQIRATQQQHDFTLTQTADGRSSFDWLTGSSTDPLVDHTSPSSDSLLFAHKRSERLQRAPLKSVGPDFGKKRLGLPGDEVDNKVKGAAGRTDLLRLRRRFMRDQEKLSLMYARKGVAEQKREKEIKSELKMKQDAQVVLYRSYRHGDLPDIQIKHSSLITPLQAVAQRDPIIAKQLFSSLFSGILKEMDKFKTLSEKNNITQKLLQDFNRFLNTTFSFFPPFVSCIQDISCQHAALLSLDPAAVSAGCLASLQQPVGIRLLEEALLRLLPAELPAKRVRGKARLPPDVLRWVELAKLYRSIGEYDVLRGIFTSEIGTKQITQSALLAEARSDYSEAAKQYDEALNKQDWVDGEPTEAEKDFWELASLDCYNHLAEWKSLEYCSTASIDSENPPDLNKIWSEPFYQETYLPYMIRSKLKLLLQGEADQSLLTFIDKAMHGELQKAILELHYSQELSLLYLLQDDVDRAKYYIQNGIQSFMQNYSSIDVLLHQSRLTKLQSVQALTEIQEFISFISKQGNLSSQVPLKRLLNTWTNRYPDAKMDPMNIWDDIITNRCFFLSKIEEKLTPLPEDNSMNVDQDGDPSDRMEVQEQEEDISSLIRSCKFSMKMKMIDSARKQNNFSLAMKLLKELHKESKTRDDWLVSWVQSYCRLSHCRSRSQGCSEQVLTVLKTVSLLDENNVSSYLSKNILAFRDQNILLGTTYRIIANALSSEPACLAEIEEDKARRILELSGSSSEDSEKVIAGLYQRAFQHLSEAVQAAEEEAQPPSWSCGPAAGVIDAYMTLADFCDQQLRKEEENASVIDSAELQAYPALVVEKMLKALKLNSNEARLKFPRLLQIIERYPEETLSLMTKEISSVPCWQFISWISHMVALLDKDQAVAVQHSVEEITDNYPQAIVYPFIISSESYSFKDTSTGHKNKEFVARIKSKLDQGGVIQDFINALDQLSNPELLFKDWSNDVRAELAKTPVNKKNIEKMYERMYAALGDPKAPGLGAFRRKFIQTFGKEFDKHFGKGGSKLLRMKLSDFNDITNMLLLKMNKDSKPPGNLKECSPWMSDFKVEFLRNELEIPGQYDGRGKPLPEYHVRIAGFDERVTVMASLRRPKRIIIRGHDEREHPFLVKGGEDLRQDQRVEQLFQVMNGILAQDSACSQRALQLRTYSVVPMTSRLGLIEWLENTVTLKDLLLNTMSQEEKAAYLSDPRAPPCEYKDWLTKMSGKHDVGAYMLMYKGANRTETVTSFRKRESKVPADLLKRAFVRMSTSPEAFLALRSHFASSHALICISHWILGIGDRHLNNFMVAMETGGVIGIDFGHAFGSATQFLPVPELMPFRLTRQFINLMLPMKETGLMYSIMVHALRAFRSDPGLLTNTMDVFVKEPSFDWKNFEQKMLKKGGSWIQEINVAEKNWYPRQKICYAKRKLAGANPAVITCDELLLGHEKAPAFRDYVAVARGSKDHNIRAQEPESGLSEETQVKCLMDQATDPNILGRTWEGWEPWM

IC50 [nM]	SMILES
1230	Cn1cncc1-c1cccc(-c2cccc3c(=O)cc(N4CCOCC4)oc23)c1
490	O=c1cc(N2CCOCC2)oc2c(-c3cccc(-c4nccs4)c3)cccc12
1130	Cc1cc(-c2cccc(-c3cccc4c(=O)cc(N5CCOCC5)oc34)c2)cs1
1900	NCc1ccc(-c2cccc(-c3cccc4c(=O)cc(N5CCOCC5)oc34)c2)cc1
1570	O=c1cc(N2CCOCC2)oc2c(-c3cccc(-c4cncnc4)c3)cccc12
1000	O=c1cc(N2CCOCC2)oc2c(-c3cccc(-c4ccc(CO)cc4)c3)cccc12
370	O=c1cc(N2CCOCC2)oc2c(-c3ncc(-c4ccccc4)s3)cccc12
400	O=c1cc(N2CCOCC2)oc2c(-c3ccc(-c4ccccc4)s3)cccc12
640	Cc1cscc1-c1cccc(-c2cccc3c(=O)cc(N4CCOCC4)oc23)c1
260	COC(=O)c1cc(N)cc(-c2cccc(-c3cccc4c(=O)cc(N5CCOCC5)oc34)c2)c1
270	O=c1cc(N2CCOCC2)oc2c(-c3cccc(-c4ccoc4)c3)cccc12
360	Cc1ccsc1-c1cccc(-c2cccc3c(=O)cc(N4CCOCC4)oc23)c1
1480	N#Cc1ccc(-c2cccc(-c3cccc4c(=O)cc(N5CCOCC5)oc34)c2)cc1
140	O=c1cc(N2CCOCC2)oc2c(-c3cccc(-c4ccc(O)cc4)c3)cccc12
3050	O=c1cc(N2CCOCC2)oc2c(-c3cccc(-c4ncccn4)c3)cccc12
510	Nc1cc(C(=O)O)cc(-c2cccc(-c3cccc4c(=O)cc(N5CCOCC5)oc34)c2)c1
20	O=c1cc(N2CCOCC2)oc2c(-c3cccc(-c4ccsc4)c3)cccc12
180	O=c1cc(N2CCOCC2)oc2c(-c3cccc(-c4ccccc4)c3)cccc12
1100	O=Cc1ccc(-c2cccc(-c3cccc4c(=O)cc(N5CCOCC5)oc34)c2)cc1
1070	Cc1ccc(-c2cccc(-c3cccc4c(=O)cc(N5CCOCC5)oc34)c2)s1
3010	Cn1ccnc1-c1cccc(-c2cccc3c(=O)cc(N4CCOCC4)oc23)c1
12	O=c1cc(N2CCOCC2)oc2c(-c3cccc4c3sc3ccccc34)cccc12
830	COc1ccc(-c2cccc(-c3cccc4c(=O)cc(N5CCOCC5)oc34)c2)cc1
380	O=c1cc(N2CCOCC2)oc2c(-c3cccc(-c4ccco4)c3)cccc12
1820	O=c1cc(N2CCOCC2)oc2c(-c3cccc(-c4cc[nH]c4)c3)cccc12
510	O=c1cc(N2CCOCC2)oc2c(-c3cccc(-c4ccncc4)c3)cccc12
90	O=c1cc(N2CCOCC2)oc2c(-c3cc(-c4ccccc4)cs3)cccc12
880	O=c1cc(N2CCOCC2)oc2c(-c3cccc(-c4ccccn4)c3)cccc12
18	O=c1cc(N2CCOCC2)oc2c(-c3cccc(-c4cccs4)c3)cccc12
1600	O=c1cc(N2CCOCC2)oc2c(-c3ccccc3)cccc12 [LY-294002]
